Measurements published in patent publication US20110178015A1, “METHODS OF TREATMENT USING BIASED LIGANDS FOR RECEPTORS SUCH AS THE PTH RECEPTOR” (priority 2007, published 2011).

Legend:
[1] = target: type I PTH/PTH-related peptide receptor (PTH1R), endogenous in primary murine osteoblasts (mouse) (UniProt P41593); assay: cell-based or functional assay
[2] = system: PTH1 receptor; conditions: Gardella 1996; Sneddon 2004; Bisello 2002; cited from earlier work
[3] = target: T1, AT1A angiotensin receptor (Rattus norvegicus, UniProt P25095); conditions: cited from earlier work
T1 sequence (P25095 1-359): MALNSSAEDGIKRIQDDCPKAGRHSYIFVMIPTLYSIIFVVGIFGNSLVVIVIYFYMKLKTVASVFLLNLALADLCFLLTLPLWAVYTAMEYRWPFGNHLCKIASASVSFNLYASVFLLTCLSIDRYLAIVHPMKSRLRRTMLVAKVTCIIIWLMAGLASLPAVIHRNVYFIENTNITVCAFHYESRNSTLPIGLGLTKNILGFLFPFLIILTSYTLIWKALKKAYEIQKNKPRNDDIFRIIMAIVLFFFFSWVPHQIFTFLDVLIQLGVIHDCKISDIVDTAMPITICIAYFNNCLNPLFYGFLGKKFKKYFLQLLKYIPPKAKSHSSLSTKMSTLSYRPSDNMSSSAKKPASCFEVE

Chain of type I PTH/PTH-related peptide receptor (PTH1R), endogenous in primary murine osteoblasts (mouse) (P41593 27-591): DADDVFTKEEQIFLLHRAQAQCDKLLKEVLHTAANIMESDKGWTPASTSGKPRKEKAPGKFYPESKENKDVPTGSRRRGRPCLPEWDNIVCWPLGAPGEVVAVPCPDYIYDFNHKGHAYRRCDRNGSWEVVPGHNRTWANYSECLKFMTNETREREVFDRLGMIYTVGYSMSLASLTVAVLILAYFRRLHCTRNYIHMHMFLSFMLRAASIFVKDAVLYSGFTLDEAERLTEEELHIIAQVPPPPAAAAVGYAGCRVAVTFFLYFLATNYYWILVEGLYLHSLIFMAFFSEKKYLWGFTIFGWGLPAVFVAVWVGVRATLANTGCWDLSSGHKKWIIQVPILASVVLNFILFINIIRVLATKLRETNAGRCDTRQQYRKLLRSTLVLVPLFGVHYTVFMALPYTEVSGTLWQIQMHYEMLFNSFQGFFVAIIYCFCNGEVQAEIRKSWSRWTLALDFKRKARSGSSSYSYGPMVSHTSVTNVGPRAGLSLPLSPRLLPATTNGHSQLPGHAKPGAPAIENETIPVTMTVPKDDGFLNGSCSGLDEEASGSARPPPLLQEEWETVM

## (D-Trp12, Tyr34)-PTH(7-34) (from UniProt P01268 38-65) (peptide)
[1]
  ERK1/2 phosphorylation in WT primary osteoblasts, 1 µM PTH-βarr, 5 min (fold over basal): 3

## PTH(1-34) (peptide)
[1]
  ERK1/2 phosphorylation in WT primary osteoblasts, 100 nM PTH(1-34), 5 min (fold over basal): 3

## Trp^l-PTHrP(1-36) (WVSEHQLLHDKGKSIQDLRRRFFLHHLIAEIHTAEI; Parathyroid hormone-related protein; UniProt P12272 37-72, looked up, variant A1W) [PTHrP analog promoting Gs-coupling without β-arrestin recruitment, reference compound]
[2]
  PTH1 receptor-Gs coupling / cAMP production: promoting Gs-coupling and cAMP production
  arrestin-dependent sequestration / β-arrestin recruitment: without inducing β-arrestin recruitment or desensitization

## [Sar1,Ile4,Ile8]SII
[3]
  G protein-independent/β-arrestin-dependent signaling to ERK1/2: selectively stimulating G protein-independent/β-arrestin-dependent 7TMR signaling to ERK1/2
